Reference: article PMC9101642 (Molecules, 2022)
Marks after values point to notes of the source that are not given here.

How the values were obtained:
ERα [1] = target: T1, ERα (Homo sapiens, UniProt P03372); assay: Fluorescence polarization competition assay: antagonistic potency and relative binding affinity; settings: for Ki: read-out: Ka ERα; for IC50: concentration that antagonizes 50% of ERα signaling activity, read-out: ERα (IC50 nM); for logRBA ERα: log of % relative binding affinity, estradiol = 100%
T1 sequence (P03372 1-595): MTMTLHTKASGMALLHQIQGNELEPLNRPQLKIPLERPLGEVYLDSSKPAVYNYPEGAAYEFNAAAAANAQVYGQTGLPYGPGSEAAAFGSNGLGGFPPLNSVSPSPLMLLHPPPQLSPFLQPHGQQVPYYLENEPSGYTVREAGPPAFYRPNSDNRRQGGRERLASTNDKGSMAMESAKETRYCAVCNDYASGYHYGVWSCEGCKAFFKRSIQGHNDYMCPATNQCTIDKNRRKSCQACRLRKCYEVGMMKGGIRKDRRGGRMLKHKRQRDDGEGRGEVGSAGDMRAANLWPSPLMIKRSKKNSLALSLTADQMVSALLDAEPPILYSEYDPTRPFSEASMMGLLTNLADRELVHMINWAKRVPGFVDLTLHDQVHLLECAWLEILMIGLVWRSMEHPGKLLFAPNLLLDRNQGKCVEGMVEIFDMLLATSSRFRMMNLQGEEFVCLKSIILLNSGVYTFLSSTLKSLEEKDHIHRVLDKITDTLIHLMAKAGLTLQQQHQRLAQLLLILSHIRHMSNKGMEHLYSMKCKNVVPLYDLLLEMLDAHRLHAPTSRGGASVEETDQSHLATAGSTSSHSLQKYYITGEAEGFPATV

ERβ = ERβ (Homo sapiens, UniProt Q92731); assay: as above; settings: for Ki: read-out: Ka ERβ; for IC50: concentration that antagonizes 50% of ERβ signaling activity, read-out: ERβ (IC50 nM); for logRBA ERβ: log of % relative binding affinity, estradiol = 100%
Sequence of ERβ (Q92731 whole entry): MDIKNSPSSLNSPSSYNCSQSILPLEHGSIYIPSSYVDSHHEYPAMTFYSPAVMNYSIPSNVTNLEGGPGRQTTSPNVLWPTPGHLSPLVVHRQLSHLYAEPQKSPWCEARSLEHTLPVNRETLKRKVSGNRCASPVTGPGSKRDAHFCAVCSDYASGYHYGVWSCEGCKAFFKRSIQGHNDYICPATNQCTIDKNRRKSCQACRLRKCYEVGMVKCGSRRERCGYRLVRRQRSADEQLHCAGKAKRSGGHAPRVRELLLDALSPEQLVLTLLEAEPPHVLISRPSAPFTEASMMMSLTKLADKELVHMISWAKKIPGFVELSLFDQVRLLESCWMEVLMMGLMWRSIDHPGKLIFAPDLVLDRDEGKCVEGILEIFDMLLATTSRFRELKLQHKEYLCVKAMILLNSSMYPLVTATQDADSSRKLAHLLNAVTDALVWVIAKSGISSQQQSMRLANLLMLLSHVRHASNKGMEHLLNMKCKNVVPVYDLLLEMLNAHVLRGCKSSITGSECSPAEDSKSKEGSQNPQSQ

MCF-7 cell lines = assay: MTT antiproliferative assay; format: cell-based, human; settings: for IC50: Homo sapiens, MCF7, growth inhibition, 48 h, read-out: MCF-7 (IC50 nM); for SI: selectivity index [IC50(MDA-MB-231)]/[IC50(MCF-7)]
MDA-MB-231 cell lines = assay: MTT antiproliferative assay; format: cell-based, human; settings: Homo sapiens, MDA-MB-231; growth inhibition, 48 h; read-out: MDA-MB-231 (IC50 nM)
[2] = tested on: Ishikawa endometrial adenocarcinoma cells; assay: Antiproliferative assay; format: cell-based; settings: Homo sapiens, growth inhibition
From the text: As SERMs profile is often associated with the stimulation of endometrial cell proliferation and an increase in the incidence of endometrial cancer (EC), the herein compounds were therefore evaluated against Ishikawa endometrial adenocarcinoma cells (Table 8, Supplementary Material Figures […]). […] However, future experimental elaboration, currently beyond the authors' experimental facilities, is required to confirm compounds' promising profiles in terms of no EC induction.

ERα [3] = target: T1, ERα; assay: ERα down-regulation immunofluorescence assay in MCF-7; format: cell-based; settings: ERα downregulation measured in MCF-7; read-out: MCF-7 DR (IC50 nM)
[4] = tested on: progesterone receptor (PR); assay: ERα functional antagonism cell assay (PR as biomarker) in MCF-7; format: cell-based; settings: Homo sapiens, MCF7; progesterone receptor as biomarker for ERα antagonism in MCF-7
MCF-7 cells = assay: Cell cycle distribution by flow cytometry; format: cell-based, human; settings: 24 h
[5] = MTT antiproliferative assay (neutral control); settings: human
[6] = calculated antagonistic (inhibitory) constant
[7] = 1 nM as lower concentration (3DPQ-5, 3DPQ-6, 3DPQ-8)

SMILES | Ki (ERα [1]; [6]) | IC50 (ERα [1]) | logRBA ERα (ERα [1]) | ERα potency, fold more potent than 4-OHT (ERα [1]; ratio of IC50 values) | Ki (ERβ; [6]) | IC50 (ERβ) | logRBA ERβ (ERβ) | IC50 (MCF-7 cell lines) | SI (MCF-7 cell lines) | IC50 (MDA-MB-231 cell lines) | IC50 [2] | IC50 (ERα [3]) | IC50 [4] | Cell Cycle (%) G0/G1 (MCF-7 cells; [7]) | Cell Cycle (%) G2/M (MCF-7 cells; [7]) | Cell Cycle (%) S (MCF-7 cells; [7]) | Cell Cycle (%) G0/G1 (MCF-7 cells; 10 nM (3DPQ-5, 3DPQ-6, 3DPQ-8)) | Cell Cycle (%) G2/M (MCF-7 cells; 10 nM (3DPQ-5, 3DPQ-6, 3DPQ-8)) | Cell Cycle (%) S (MCF-7 cells; 10 nM (3DPQ-5, 3DPQ-6, 3DPQ-8)) | IC50 at 48 h [5] | also measured
CC(=O)c1cc(C(=O)OC2C=CC(=O)OC(O)CCCC=CC3CC(O)CC32)ccc1OCCN1C(=O)CCC1=O (stereo not shown) [Compound 3DPQ-5, -decahydro-1H-cyclopenta[f][1]oxacyclotridecin-1-yl 3-acetyl-4-(2-(2,5-dioxopyrrolidin-1-yl)ethoxy)benzoate] | 0.18 nM | 0.81 ± 0.43 nM | 2.04 ^‡ | 1.38 fold | 41.8 nM | 74.41 ± 0.46 nM | 0.08 ^†,‡,§ | 1.02 ± 0.64 nM | 51.61 ^‡,§ | 52.6 ± 0.69 nM | 1.42 ± 0.32 nM | > 100 nM | > 100 nM | 71.78 ± 0.67 *^,†,‡,§ % | 19.01 ± 3.55 *^,†,‡,§ % | 9.21 ± 1.95 *^,†,‡,§ % | 74.24 ± 2.15 *^,†,‡,§ % | 15.85 ± 4.43 *^,†,‡,§ % | 9.92 ± 0.76 *^,†,‡,§ % | > 100 nM | 
CC(=O)c1cc(C(=O)O[C@@H]2/C=C/C(=O)O[C@@H](O)CCC/C=C/[C@@H]3C[C@H](O)C[C@H]32)ccc1OCCN1C=Cc2ccccc2C1 [Compound 3DPQ-7, (1R,2E,6R,10E,11aS,13S,14aR)-6,13-dihydroxy-4-oxo-4,6,7,8,9,11a,12,13,14,14a-decahydro-1H-cyclopenta[f][1]oxacyclotridecin-1-yl 3-acetyl-4-(2-(isoquinolin-2(1H)-yl)ethoxy)benzoate] |  | 0.64 ± 0.13 nM | 2.14 ^†,‡ |  |  | 72.34 ± 0.17 nM | 0.09 ^†,‡,§ | 0.78 ± 0.52 nM | 66.61 ^‡,§ | 52 ± 0.68 nM | 1.74 ± 0.43 nM | > 100 nM | > 100 nM |  |  |  |  |  |  | > 100 nM | Ka ERα (nM) (ERα [1]; [6]): 0.14 ^†,‡ nM; ERα potency, fold higher than Ral (ERα [1]; ratio of IC50 values): 1.16 fold; Ka ERβ (nM) (ERβ; [6]): 40.64 ^†,‡,§ nM; MCF-7 antiproliferative potency, fold higher than Ral (MCF-7 cell lines; ratio of IC50 values): 1.14 fold; Cell Cycle (%) G0/G1 (MCF-7 cells; 0.1 nM): 73.25 ± 2.54 *^,†,‡,§ %; Cell Cycle (%) G2/M (MCF-7 cells; 0.1 nM): 12.69 ± 2.64 *^,†,‡,§ %; Cell Cycle (%) S (MCF-7 cells; 0.1 nM): 14.06 ± 1.58 *^,†,‡,§ %; Cell Cycle (%) G0/G1 (MCF-7 cells; 1 nM): 75.71 ± 1.43 *^,†,‡,§ %; Cell Cycle (%) G2/M (MCF-7 cells; 1 nM): 9.53 ± 3.54 *^,†,‡,§ %; Cell Cycle (%) S (MCF-7 cells; 1 nM): 14.77 ± 1.46 *^,†,‡,§ %
CC(=O)c1cc(C(=O)O[C@@H]2/C=C/C(=O)O[C@@H](O)CCC/C=C/[C@@H]3C[C@H](O)C[C@H]32)ccc1OCCN1CCCC2CCCNC21 (stereo partly drawn) [Compound 3DPQ-8, (1R,2E,6R,10E,11aS,13S,14aR)-6,13-dihydroxy-4-oxo-4,6,7,8,9,11a,12,13,14,14a-decahydro-1H-cyclopenta[f][1]oxacyclotridecin-1-yl 3-acetyl-4-(2-(octahydro-1,8-naphthyridin-1(2H)-yl)ethoxy)benzoate] | 0.18 nM | 0.81 ± 0.14 nM | 2.04 ^‡ | 1.38 fold | 40.6 nM | 72.3 ± 0.78 nM | 0.09 ^†,‡,§ | 1.06 ± 0.45 nM | 40.15 ^‡,§ | 42.56 ± 0.35 nM | 1.98 ± 0.32 nM | > 100 nM | > 100 nM | 72.39 ± 1.43 *^,†,‡,§ % | 15.11 ± 2.56 *^,†,‡,§ % | 12.50 ± 1.22 *^,†,‡,§ % | 74.85 ± 2.54 *^,†,‡,§ % | 11.95 ± 2.45 *^,†,‡,§ % | 13.21 ± 2.15 *^,†,‡,§ % | > 100 nM | 
